Source: patent publication US20140031389A1, “SCREENING METHODS AND PHARMACEUTICAL COMPOSITIONS FOR THE TREATMENT OF INFLAMMATORY BOWEL DISEASES” (INSERM (INSTITUT NATIONAL DE LA SANTE ET DE LA RECHERCHE …, priority 2011, published 2014)

Columns and labels:
[1] = test system: GADD34-mediated elF2alpha dephosphorylation; assay: elF2alpha phosphorylation and ER stress markers in colonic mucosa of salubrinal-treated IL10/Nox1^dKO mice; format: in vivo
Excerpt: (§1) To assess the pathogenic role of goblet cells in UC, WT and Nox1^KO mice were subjected to oral administration of DSS or rectal administration of TNBS. […] IRE1beta and ATF6alpha branch signaling were extended in colonic epithelial cells as evidenced by the increased XBP-1 mRNA splicing, the induction of GRP78, GRP94, PDI at both mRNA and protein levels, and dilated cisternae and gross distortion of the ER in goblet cells. […] Consistent with reduced eIF2α phosphorylation, increased expression of PPP1R15A/GADD34, a stress-inducible protein that recruits the catalytic subunit of protein phosphatase 1 and promotes elF2alpha dephosphorylation, was detected in agreement with our previous data in humans^1. EIF2alpha phosphorylation is cytoprotective during ERS, because cells are sensitized to cell death when this pathway is genetically ablated^33 and protected when it is ectopically enforced^34. To test whether a selective pharmacological inhibitor of GADD34-mediated elF2alpha dephosphorylation may alleviate colitis, IL10/Nox1^dKO mice were treated with 1 mg/kg salubrinal^35 for up to three weeks.

[2] = test system: IL10/Nox1^dKO mice; assay: Salubrinal treatment of spontaneous colitis in IL10/Nox1^dKO mice; format: in vivo
Excerpt: All SPF-reared C57B1/6-IL10/Nox1^dKO mice developed spontaneously colitis at 6/7 weeks and disease activity index (DAI) scores which became more severe with age, including diarrhea, high incidence of rectal bleeding, change in body and colon weights, and prolapses. None of WT and single-KO mice developed colitis during the time frame studied. […] We next measured epithelial permeability of FITC-dextran in segments of distal colon and indigenous bacterial translocation was identified in the spleen of 7 and 12-week-old mice. […] Consistent with previous findings in patients with UC^30,31, IL10/Nox1^dKO mice expressed almost 50% of microRNAs relevant in defining UC signature.
as §1

[3] = salubrinal-treated IL10/Nox1^dKO mice, 1 mg/kg for up to three weeks
[4] = IL10/Nox1^dKO mice, 1 mg/kg salubrinal for up to three weeks

O=C(/C=C/c1ccccc1)NC(NC(=S)Nc1cccc2cccnc12)C(Cl)(Cl)Cl (stereo not drawn) [salubrinal, 3-phenyl-N-[2,2,2-trichloro-1-[[(8-quinolinylamino)thioxomethyl]amino]ethyl]-2-propenamide]
elF2alpha phosphorylation ([1]; colonic mucosa, IL10/Nox1^dKO mice, 1 mg/kg salubrinal for up to three weeks): robust elF2alpha phosphorylation
Grp78/Bip and Grp94 expression [1, 3]: trend toward reduced
localisation of salubrinal-induced phosphorylation of elF2alpha [1, 3]: mainly detected in colonic epithelial cells
histological colitis score throughout the colon [2, 4]: strongly reduced
immune cell infiltration [2, 4]: markedly prevented
mucosal architecture and goblet cells [2, 4]: restored intact mucosal architecture with normal goblet cells
apoptosis of colonic mucosa ([2]; IL10/Nox1^dKO mice, 1 mg/kg salubrinal for up to three weeks, anti-apoptotic activity on CHOP expression): protected colonic mucosa against apoptosis
amount of colonic and splenic Treg cells [2, 3]: strongly decreased to baseline
levels of proinflammatory cytokines [2, 3]: strongly decreased to baseline
